Results taken from PubChem BioAssay (NCI).
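Values below derive from 48-hour exposures of cells grown in 96-well plates, with endpoints linearly interpolated between the two concentrations bracketing the appropriate inhibition level. GI50 = concentration required for 50% inhibition of growth. TGI: concentration producing complete growth inhibition.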

Experiments:
Experiment in all cases: DTP human tumour cell line panel, 48 h; in the data active = GI50 below about 0.43 µM; inactive = the rest
[1] = system: 786-0 renal
[2] = system: A498 renal
[3] = system: A549 NSCLC
[4] = system: ACHN renal
[5] = system: BT-549 breast
[6] = system: CAKI-1 renal
[7] = system: CCRF-CEM leukemia
[8] = system: COLO 205 colon
[9] = system: DU-145 prostate
[10] = system: EKVX NSCLC
[11] = system: HCC-2998 colon
[12] = system: HCT-116 colon
[13] = system: HCT-15 colon
[14] = system: HL-60(TB) leukemia
[15] = system: HOP-62 NSCLC
[16] = system: HOP-92 NSCLC
[17] = system: HS 578T breast
[18] = system: HT29 colon
[19] = system: IGROV1 ovarian
[20] = system: K-562 leukemia
[21] = system: KM12 colon
[22] = system: M14 melanoma
[23] = system: MALME-3M melanoma
[24] = system: MCF7 breast
[25] = system: MDA-MB-435
[26] = system: MOLT-4 leukemia
[27] = system: NCI-H226 lung
[28] = system: NCI-H23 lung
[29] = system: NCI-H460 lung
[30] = system: NCI-H522 lung
[31] = system: OVCAR-4 ovarian
[32] = system: OVCAR-5 ovarian
[33] = system: OVCAR-8 ovarian
[34] = system: PC-3 prostate
[35] = system: RPMI-8226 leukemia
[36] = system: RXF 393 renal
[37] = system: SF-268 CNS
[38] = system: SF-295 CNS
[39] = system: SF-539 CNS
[40] = system: SK-MEL-2 melanoma
[41] = system: SK-MEL-28 melanoma
[42] = system: SK-MEL-5 melanoma
[43] = system: SK-OV-3 ovarian
[44] = system: SN12C renal
[45] = system: SNB-19 CNS
[46] = system: SNB-75 CNS
[47] = system: SR leukemia
[48] = system: SW-620 colon
[49] = system: TK-10 renal
[50] = system: U251 CNS
[51] = system: UACC-257 melanoma
[52] = system: UACC-62 melanoma

O=C(Nc1ccc(F)c(F)c1)c1cc(-c2ccc(F)cc2F)ccc1O
2.86 µM: TGI [40]
7.18 µM: TGI [5]
2.81 µM: TGI [14]
2.41 µM: TGI [52]
inactive: GI50 [1] 1.12 µM | GI50 [2] 0.636 µM | GI50 [3] 1.57 µM | GI50 [4] 1.46 µM | GI50 [5] 1.06 µM | GI50 [6] 1.1 µM | GI50 [7] 1.62 µM | GI50 [8] 10.6 µM | GI50 [9] 1.85 µM | GI50 [10] 1.38 µM | GI50 [11] 1.49 µM | GI50 [12] 1.12 µM | GI50 [13] 1.43 µM | GI50 [14] 1.11 µM | GI50 [15] 1.59 µM | GI50 [16] 0.684 µM | GI50 [17] 1.61 µM | GI50 [18] 13.8 µM | GI50 [19] 1.81 µM | GI50 [20] 1.37 µM | GI50 [21] 1.67 µM | GI50 [22] 1.63 µM | GI50 [23] 1.01 µM | GI50 [24] 1.18 µM | GI50 [25] 1.43 µM | GI50 [26] 1.54 µM | GI50 [27] 1.51 µM | GI50 [28] 1.07 µM | GI50 [29] 1.46 µM | GI50 [30] 0.923 µM | GI50 [31] 1.37 µM | GI50 [32] 1.55 µM | GI50 [33] 1.65 µM | GI50 [34] 1.49 µM | GI50 [35] 0.768 µM | GI50 [36] 1.25 µM | GI50 [37] 1.58 µM | GI50 [38] 1.2 µM | GI50 [39] 1.73 µM | GI50 [40] 0.979 µM | GI50 [41] 1.41 µM | GI50 [42] 0.694 µM | GI50 [43] 1.37 µM | GI50 [44] 1.09 µM | GI50 [45] 1.65 µM | GI50 [46] 0.906 µM | GI50 [47] 1.92 µM | GI50 [48] 1.79 µM | GI50 [49] 1.7 µM | GI50 [50] 1.48 µM | GI50 [51] 0.781 µM | GI50 [52] 0.628 µM
5.94 µM: TGI [12]
5.86 µM: TGI [26]
6.51 µM: TGI [25]
2.72 µM: TGI [35] | TGI [46]
> 50 µM: TGI [3] | TGI [7] | TGI [9] | TGI [11] | TGI [17] | TGI [18] | TGI [19] | TGI [20] | TGI [24] | TGI [29] | TGI [30] | TGI [31] | TGI [32] | TGI [33] | TGI [34] | TGI [37] | TGI [39] | TGI [45] | TGI [47] | TGI [48] | TGI [49] | TGI [50]
3.87 µM: TGI [36]
4.63 µM: TGI [44]
3.6 µM: TGI [51]
2.64 µM: TGI [16]
19.1 µM: TGI [41]
2.07 µM: TGI [2]
3.58 µM: TGI [38]
4.55 µM: TGI [4]
15.7 µM: TGI [10]
3.07 µM: TGI [23]
1.67 µM: TGI [42]
4.7 µM: TGI [43]
9.82 µM: TGI [22]
10.1 µM: TGI [27]
6.23 µM: TGI [13]
3.52 µM: TGI [6]
6.65 µM: TGI [21]
2.9 µM: TGI [1]
3.23 µM: TGI [28]
6.15 µM: TGI [15]
30.5 µM: TGI [8]
